Structures can show the parent of a compound that is named as a salt. Where a SMILES comes first, the peptide text is derived from it. Where no end group is shown, it is not given here. The star is where a group is joined. Cbz = O=C(OCc1ccccc1)*; CH2F = FC*
What was measured:
Jurkat cells [1] = test: MTT assay of Jurkat cells in the presence of caspase, necroptosis and necrosis inhibitors; assay type: cell-based, human; conditions: Z-VAD-FMK 15 µM, 24 h, 37°C; for inhibition of cell death induced by 5: necrostatin-1 30 µM, IM-54 10 µM, 1 h pre-incubation, 5 75 µM, MTT
Protocol: Jurkat cells (1.0 × 10^5 cells/mL) were incubated in 10% FCS RPMI 1640 medium (MTG-free) containing a solution Z-VAD-fmk (15 µM)/necrostatin-1 (30 µM)/IM-54 (10 µM)/(under 5% CO2 at 37°C for 1 h in 96-well plates (BD Falcon). Then, Ir complexes (75 µM) were added and incubated under 5% CO2 at 37°C for 24 h, and then 0.5% MTT reagent in PBS buffer (10 µL) was added to the cells and incubated under 5% CO2 at 37°C for 4 h. A formazan lysis solution (10% SDS in 0.01 N HCl) (100 µL) was added, and the resulting solution incubated overnight under the same conditions, followed by measurement of absorbance at 570 nm with a microplate reader (Bio-Rad).

Jurkat cells [2] = test: PI staining microscopy of Jurkat cells with 5 in the presence of inhibitors; assay type: cell-based, human; conditions: nicardipine 50 µM, verapamil 20 µM, 37°C 1 h, then 5 (35 µM) 24 h
Protocol: The cells were then washed twice with ice-cold PBS containing 0.5% FCS and 0.1% NaN3 and incubated with PI in PBS at room temperature for 10–15 min.

[3] = biological target: DR5 (immobilised on the QCM sensor chip) (UniProt O14763 56-440); test: 27 MHz quartz crystal microbalance (QCM); DR5 immobilised by EDC/NHS on a 3,3'-dithiodipropionic acid layer on the Au electrode, blocked with ethanolamine; analytes added in PBS, 25°C; apparent constants from the decrease in frequency, 1:1 complexation assumed, Kd = 1/Kapp; conditions: both partners purified

Which “inhibition of cell death induced by 5” value (Jurkat cells [1]) does the source give for `CCCCCNC1=C(c2cn(C)c3ccccc23)C(=O)N(C)C1=O` [IM-54] here?
Its value is “negligibly inhibited”.

How did the “inhibition of cell death induced by 5” value (Jurkat cells [1]) turn out when `CN1C(=O)C(Cc2c[nH]c3ccccc23)NC1=S` (stereo not shown) [Necrostatin-1] was run?
Its value is “negligibly inhibited”.

`COC(=O)C[C@H](NC(=O)[C@H](C)NC(=O)[C@@H](NC(=O)OCc1ccccc1)C(C)C)C(=O)CF` [Z-VAD-FMK, Z-Val-Ala-Asp(OMe) fluoromethylketone] (Cbz-Val-Ala-Asp(OMe)-CH2F) was tested. Which “inhibition of cell death induced by 5” value (Jurkat cells [1]) did it give?
Its value is “negligibly inhibited”.

What about the “inhibition of TRAIL-induced cell death” value (Jurkat cells [1]; TRAIL 150 ng/mL, MTT and flow cytometry (PI)) of the same molecule?
The value was “almost completely”.

How did the “inhibition of cell death induced by 5” value (Jurkat cells [2]) turn out when `COC(=O)C1=C(C)NC(C)=C(C(=O)OCCN(C)Cc2ccccc2)C1c1cccc([N+](=O)[O-])c1` (stereo not shown) [nicardipine, nicardipine hydrochloride] was run?
The value was “considerably inhibited”.

B1: Ir complex 2c (contains a KKGG peptide) (other)
peptide: KKGG
modifications: also: joined to a cyclometalated Ir(III) complex
notes: cationic peptide H2N-KKGG- on the Ir complex
With B1 as the molecule, how does the Ka [3] read?
Its Ka is under 10000 M⁻¹.

What about the Kd [3] of the same molecule?
The Kd was over 100 µM.

Reference: article PMC6092981 (Bioinorganic Chemistry and Applications, 2018)
